We go through 1 compound from patent US10653694B2, “Cytotoxic compounds which are inhibitors of the polymerisation of tubulin” (CENTRE NATIONAL DE LA RECHERCHE SCIENTIFIQUE (CNRS), priority 2014, dated 2020).

Read-outs that look alike come from different tables or passages of the source.

In series [1] the test system is tubulin. The series can be described thus: Inhibition of polymerisation of tubulin (IPT). The format is biochemical, sheep. To be noted: Table 3; inhibition of 50% of the maximum rate of assembly; tubulin 10 μM; read-out: IPT (IC50). From the text:
Brown oil, 89%. Rf 0.3 (Cyclohexane/EtOAc, 7/3). IR (neat, cm^−1): 1609, 1593, 1564, 1428, 1205, 1157. ^1H NMR (300 MHz, CDCl3): 8.08 (d, 1H, J=8.2 Hz), 7.90 (d, 1H, J=8.4 Hz), 7.77-7.72 (ddd, 1H, J=8.2 Hz, J=6.9 Hz, J=1.3 Hz), 7.44 (ddd, 1H, J=8.3 Hz, J=7.0 Hz, J=1.0 Hz), 6.49 (d, 2H, J=2.2 Hz), 6.27 (t, 1H, J=2.2 Hz), 4.90 (q, 1H, J=6.9 Hz), 3.73 (s, 6H), 2.91 (s, 3H), 1.78 (d, 3H, J=6.9 Hz). ^13C NMR (75 MHz, CDCl3): 171.8, 163.8, 161.0 (2C), 150.7, 146.9, 133.2, 128.5, 126.6, 124.7, 121.6, 106.2 (2C), 98.0, 55.4 (2C), 43.4, 26.9, 21.1. m/z MS (APCI^+): 309 (M+H)^+. Cytotoxicity Protocol. U87, H1299 and MDA-MB231 cells are grown in Dulbecco minimal essential medium (DMEM) containing 4.5 g/L glucose and supplemented with 10% foetal calf serum and 1% glutamine. K562 and HCT116 cells are grown in RPMI 1640 medium containing 10% foetal calf serum and 1% glutamine. All the cell lines are maintained in culture at 37° C. in a humid atmosphere containing 5% CO2. The cells are inoculated in 96-well culture plates in an amount of 5000 cells per well in 50 μL of culture medium. After 24 hours of culture, the molecule to be tested, dissolved in DMSO and diluted 1/1000 in suitable culture medium, is added in each well in an amount of 50 μL per well. After 72 hours of incubation, 20 μL of resazurin is added in each well. After 1 hour of incubation, emitted fluorescence is measured at 590 nm after excitation at 560 nm using the Victor fluorescence reader (Perkin-Elmer, USA). Each concentration is tested three times and each experiment is repeated three times. Protocol for Inhibition of Polymerisation of Tubulin. When tubulin is placed at a temperature of 0° C., it is in the form of free dimers. […] The IPT of the various synthesized analogues was determined on a soluble tubulin according to the method of Shelanski^7 from sheep brains where it constitutes 20 to 25% of soluble proteins. The “antitubulin” activity is evaluated according to the method of Gaskin^8 by measuring turbidity, which is proportional to the microtubule concentration in the suspension. Turbidity is measured by absorption of the suspension at 350 nm using a spectrophotometer fitted with a cell thermostatically-controlled at 37° C. The various samples were dissolved in DMSO and incubated 10 minutes at 37° C. then 5 minutes at 0° C. The tubulin assembly and disassembly curves are obtained by absorption kinetics at 350 nm as a function of time. The IC50 determined graphically is defined as the concentration of inhibitor necessary to decrease by 50% the maximum rate of assembly of the control tubulin. In Vitro Biological Study of Compounds of the Present Invention
The most cytotoxic compounds were selected for tests of inhibition of polymerisation of tubulin. These tests were carried out under the direction of Dr J. Dubois at Gif-sur-Yvette, France. Tubulin is purified from ewe brains according to the method of Shelanski^9 by two assembly-disassembly cycles. The stock solution (15-20 mg/mL), stored at −196° C., is thawed and diluted in assembly buffer (0.1 M MES, 0.5 mM MgCl2, 1 mM EGTA, and 1 mM GTP, pH 6.6) to have a final concentration of 10 μM. Tubulin assembly is monitored by fluorescence on 96-well plates according to the method of Barron et al.^10 Inhibitor (DMSO, 1 μL) is added to the tubulin solution (10 μM, 100 μL per well) and the solution is incubated 45 minutes at room temperature. GTP (1 mM final) is then added, the solution is mixed rapidly and fluorescence (λex=350 nm, λem=440 nm) is measured on a Wallac Victor fluorometer (Perkin Elmer). The inhibition of 50% of the maximum rate of assembly (IC50) is determined in duplicate or triplicate on 10 concentrations bracketing the IC50.

The test system of another series is many human cancer lines. To be noted: read-out: IC50 (cytotoxic); cited from earlier work.
The test system of series [2] is tubulin. To be noted: binding to the colchicine site; read-out: IC50 (inhibits tubulin assembly into microtubules); cited from earlier work.
Series [3] has as its system endothelial cell proliferation. To be noted: inhibition of endothelial cell proliferation; cited from earlier work.

What is called IC50 is the midpoint of a concentration-inhibition curve. `COc1ccc(/C=C\c2cc(OC)c(OC)c(OC)c2)cc1O` [CA-4, combretastatin A-4]: the IC50 with tubulin [1] is […]; with many human cancer lines, 1 to 2 nM; with tubulin [2] it was […]. Moreover, the “anti-vascular activity in vitro (in words)” value in series [3] was “nanomolar”.
